Laboratory results as given in patent publication US20220296628A1, “RNA COMBINATIONS AND COMPOSITIONS WITH DECREASED IMMUNOSTIMULATORY PROPERTIES” (CureVac AG, priority 2019, published 2022).

Tests used:
mice (strain 129SV) = assay: Serum IFNα by ELISA 24 hours post LNP injection; type: in vivo, mouse; conditions: 24 hours post i.v. LNP injection, in a dose-dependent manner (oligo 20% or 6.7% mass), compared to PpLuc mRNA only (FIG. 4B)
Experimental: For preparation of Lipid nanoparticles (LNP) containing both PpLuc mRNA and 2-O-methylated oligonucleotide, first the 2′-O-methylated oligonucleotide was added to PpLuc mRNA at a weight percentage of either 20% or 6.7% (see Table 3). LNP containing PpLuc mRNA either with or without admixture of 2-O-methylated oligonucleotide were prepared using cationic lipid, cholesterol, PEG-lipid and a neutral lipid. The mRNA was diluted to 1 g/L in citrate buffer, pH 4. The ethanolic lipid solution was mixed with the aqueous RNA solution at a ratio of 1:3 (vol/vol) using a Nanoassemblr (PrecisionNanoSystems). The ethanol was then removed and the buffer replaced by 10 mM HEPES, pH 7.4 comprising 9% Sucrose by dialysis. […] To analyse the influence of the 2′-O-methylated oligonucleotide on immunostimulation, the concentrations of IFNγ, TNFα, IL-6, MIP-1β, RANTES, and MCP1 were measured in sera from blood collected 6 hours post LNP injection by Cytometric Bead Array (CBA), performed as described in paragraph 2.3. […] To further assess the influence of the 2′-O-methylated oligonucleotide on immunostimulation, the concentration of IFNα was measured in sera from blood collected 24 hours post LNP injection by ELISA.

[1] = test system: human peripheral blood mononuclear cells (PBMCs); assay: PBMC stimulation: DOTAP co-transfection of immunostimulatory non-coding RNA (RNAdjuvant) with oligonucleotide, cytokines by CBA; type: cell-based; conditions: DOTAP co-transfection with RNAdjuvant 1 μg/ml, oligonucleotide 0.25 μg/ml (25% weight), supernatant 24 hours, compared to immunostimulatory non-coding RNA only (FIG. 1A)
Experimental: Human peripheral blood mononuclear cells (PBMCs) were isolated from heparinized blood of healthy volunteers by standard Ficoll-Hypaque density gradient centrifugation (Ficoll 1.078 g/ml). PBMCs were re-suspended in RPMI 1640 supplemented with 10% heat-inactivated FCS. After counting, cells are re-suspended at 50 million cells per ml in fetal calf serum, 10% DMSO, and frozen. Before usage, the cells are thawed.
For transfection experiments, 2×10^5 human PBMCs per well were seeded into each well of a 96-well plate in X-Vivo 15 medium (Lonza). For preparation of DOTAP complexes containing both immunostimulatory non-coding RNA and a 2′-O-methylated oligonucleotide (SEQ ID NO: 85), the oligonucleotide was first added to immunostimulatory non-coding RNA at a weight percentage of 25%. For preparation of DOTAP complexes containing both PpLuc mRNA and a 2′-O-methylated oligonucleotide, the oligonucleotide was first added to PpLuc mRNA at a weight percentage of 25%. The molar ratio of PpLuc mRNA to oligonucleotide was thus […] (MW (Oligonucleotide)=2907 g/mol, MW (PpLuc mRNA)=652377 g/mol). DOTAP complexes containing either immunostimulatory non-coding RNA or PpLuc mRNA without or with oligonucleotide were formed at a ratio of 3 μl of DOTAP per 1 μg of RNAdjuvant or 1 μg of mRNA. […] To quantify background stimulation, PBMC were incubated either with DOTAP alone (“vehicle”) or medium only. […]
In supernatants collected from PBMC stimulated without or with 2-O-methylated oligonucleotide, the concentrations of IFN-α, IFN-γ, TNF, were measured by Cytometric Bead Array (CBA) according to the manufacturer's instructions (BD Biosciences) using the following kits: Human Soluble Protein Master Buffer Kit (catalog no. 558264), Assay Diluent (catalog no. 560104), Human IFN-α Flex Set (catalog no. 560379), Human IFN-γ Flex Set (catalog no. 558269), Human TNF Flex Set (catalog no. 560112); all kits from BD Biosciences. The data was analyzed using the FCAP Array v3.0 software (BD Biosciences).

## 5′-GAG CGmG CCA-3′ (GAGCNGCCA; 2'-O-methyl guanosine at position 5; 9mer oligonucleotide; modified_base (5)..(5) n can be any nucleotide, wherein the nucleotide is 2-O-methylated, preferably a 2-O-methylated guanosine) [Gm18, 9-mer 2′-O-methylated RNA oligonucleotide; position 5 is 2′-O-methylated guanosine (Gm); antagonist of TLR7 and 8]
Mice (strain 129SV)
  release of IFNα in sera (ELISA): strongly decreases the release
[1]
  secretion of cytokine INF-a: reduced secretion
  secretion of cytokine INF-y: reduced secretion
  secretion of cytokine TNF: reduced secretion
